Laboratory results as given in patent US12077503B2, “Substituted cyclic amides and their use as herbicides” (FMC CORPORATION, priority 2015, dated 2024).

How the values were obtained:
Assay type in all cases: in vivo
[1] = tested on: ryegrass, Italian (Italian ryegrass, Lolium multiflorum); test: Test A preemergence; details: Lolium multiflorum, pre-emergence, 240 h, preemergence, 0 to 100 scale where 0 is no effect and 100 is complete control, read-out: Ryegrass, Italian plant response rating; for pest or weed control at 125 g/ha: 125 g ai/ha, visual injury rating, approximately 10 d; for pest or weed control at 500 g/ha: 500 g ai/ha
Outline: (§1)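 Visual injury, scored on a 0–100 scale relative to untreated controls, was recorded about 10 d after application. Treatments were a preemergence soil spray over planted seeds or a postemergence spray on plants at the one- to two-leaf stage, 2 to 10 cm tall, all in loam soil–sand blend in the greenhouse.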

[2] = tested on: ragweed (common ragweed, Ambrosia elatior); test: Test A preemergence; details: Ambrosia artemisiifolia, pre-emergence, 240 h, preemergence, 0 to 100 scale where 0 is no effect and 100 is complete control, read-out: Ragweed plant response rating; for pest or weed control at 125 g/ha: 125 g ai/ha, visual injury rating, approximately 10 d; for pest or weed control at 500 g/ha: 500 g ai/ha
Outline: as §1

[3] = tested on: barnyardgrass (Echinochloa crus-galli); test: Test A preemergence; details: Echinochloa crus-galli, pre-emergence, 240 h, preemergence, 0 to 100 scale where 0 is no effect and 100 is complete control, read-out: Barnyardgrass plant response rating; for pest or weed control at 125 g/ha: 125 g ai/ha, visual injury rating, approximately 10 d; for pest or weed control at 500 g/ha: 500 g ai/ha
Outline: as §1

[4] = tested on: Kochia (Kochia scoparia); test: Test A preemergence; details: Bassia scoparia, pre-emergence, 240 h, preemergence, 0 to 100 scale where 0 is no effect and 100 is complete control, read-out: Kochia plant response rating; for pest or weed control at 125 g/ha: 125 g ai/ha, visual injury rating, approximately 10 d; for pest or weed control at 500 g/ha: 500 g ai/ha
Outline: as §1

[5] = tested on: pigweed (Amaranthus retroflexus); test: Test A preemergence; details: Amaranthus retroflexus, pre-emergence, 240 h, preemergence, 0 to 100 scale where 0 is no effect and 100 is complete control, read-out: Pigweed plant response rating; for pest or weed control at 125 g/ha: 125 g ai/ha, visual injury rating, approximately 10 d; for pest or weed control at 500 g/ha: 500 g ai/ha
[6] = tested on: giant foxtail (Setaria faberii); test: Test A preemergence; details: Setaria faberi, pre-emergence, 240 h, preemergence, 0 to 100 scale where 0 is no effect and 100 is complete control, read-out: Foxtail, Giant plant response rating; for pest or weed control at 125 g/ha: 125 g ai/ha, visual injury rating, approximately 10 d; for pest or weed control at 500 g/ha: 500 g ai/ha
Outline: as §1

[7] = tested on: ryegrass, Italian (Italian ryegrass, Lolium multiflorum); test: Test A postemergence; details: Lolium multiflorum, post-emergence, 240 h, postemergence; for pest or weed control at 125 g/ha: 125 g ai/ha, visual injury vs untreated controls after approx. 10 d, 0 = no effect, 100 = complete control, read-out: Ryegrass, Italian plant response rating (0 to 100 scale); for pest or weed control at 500 g/ha: 500 g ai/ha, 0 to 100 scale, 0 is no effect, 100 is complete control, read-out: Ryegrass, Italian plant response rating
Outline: as §1

[8] = tested on: wheat (Triticum aestivum); test: Test A postemergence; details: Triticum aestivum, post-emergence, 240 h, postemergence; for plant injury at 125 g/ha: 125 g ai/ha, visual injury vs untreated controls after approx. 10 d, 0 = no effect, 100 = complete control, read-out: Wheat plant response rating (0 to 100 scale); for plant injury at 500 g/ha: 500 g ai/ha, 0 to 100 scale, 0 is no effect, 100 is complete control, read-out: Wheat plant response rating
Outline: as §1

[9] = tested on: ragweed (common ragweed, Ambrosia elatior); test: Test A postemergence; details: Ambrosia artemisiifolia, post-emergence, 240 h, postemergence; for pest or weed control at 125 g/ha: 125 g ai/ha, visual injury vs untreated controls after approx. 10 d, 0 = no effect, 100 = complete control, read-out: Ragweed plant response rating (0 to 100 scale); for pest or weed control at 500 g/ha: 500 g ai/ha, 0 to 100 scale, 0 is no effect, 100 is complete control, read-out: Ragweed plant response rating
Outline: as §1

[10] = tested on: Kochia (Kochia scoparia); test: Test A postemergence; details: Bassia scoparia, post-emergence, 240 h, postemergence; for pest or weed control at 125 g/ha: 125 g ai/ha, visual injury vs untreated controls after approx. 10 d, 0 = no effect, 100 = complete control, read-out: Kochia plant response rating (0 to 100 scale); for pest or weed control at 500 g/ha: 500 g ai/ha, 0 to 100 scale, 0 is no effect, 100 is complete control, read-out: Kochia plant response rating
Outline: as §1

[11] = tested on: blackgrass (Alopecurus myosuroides); test: Test A postemergence; details: Alopecurus myosuroides, post-emergence, 240 h, postemergence; for pest or weed control at 125 g/ha: 125 g ai/ha, visual injury vs untreated controls after approx. 10 d, 0 = no effect, 100 = complete control, read-out: Blackgrass plant response rating (0 to 100 scale); for pest or weed control at 500 g/ha: 500 g ai/ha, 0 to 100 scale, 0 is no effect, 100 is complete control, read-out: Blackgrass plant response rating
Outline: as §1

[12] = tested on: rice (Oryra sativa); test: Test B flooded paddy test; details: Oryza sativa, 250 g ai/ha, Flood; 0 to 100 scale where 0 is no effect and 100 is complete control; read-out: Rice plant response rating
Outline: (§2)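 Visual ratings (0 none to 100 complete control) are relative to untreated plants, taken 13–15 d after treatment in a greenhouse. Test material went straight into floodwater standing 3 cm above the soil, kept constant, on plants at the 2-leaf stage.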

[13] = tested on: ducksalad (Heteranthera limosa); test: Test B flooded paddy test; details: Heteranthera limosa, 250 g ai/ha, Flood; 0 to 100 scale where 0 is no effect and 100 is complete control; read-out: Ducksalad plant response rating
Outline: as §2

[14] = tested on: barnyardgrass (Echinochloa crus-galli); test: Test B flooded paddy test; details: Echinochloa crus-galli, 250 g ai/ha, Flood; 0 to 100 scale where 0 is no effect and 100 is complete control; read-out: Barnyardgrass plant response rating
Outline: as §2

[15] = tested on: sedge, umbrella (small-flower umbrella sedge, Cyperus difformis); test: Test B flooded paddy test; details: Cyperus difformis, 250 g ai/ha, Flood; 0 to 100 scale where 0 is no effect and 100 is complete control; read-out: Sedge, Umbrella plant response rating
Outline: as §2

Cc1cc([C@H]2CN(C)C(=O)[C@@H]2C(=O)Nc2ccccc2F)no1 [Compound 1194]
30%: pest or weed control at 500 g/ha [3]
0%: pest or weed control at 125 g/ha [1] | pest or weed control at 500 g/ha [1] | pest or weed control at 125 g/ha [2] | pest or weed control at 500 g/ha [2] | pest or weed control at 125 g/ha [3] | pest or weed control at 125 g/ha [4] | pest or weed control at 500 g/ha [4] | pest or weed control at 125 g/ha [5] | pest or weed control at 500 g/ha [5] | pest or weed control at 125 g/ha [6] | pest or weed control at 125 g/ha [7] | pest or weed control at 500 g/ha [7] | plant injury at 125 g/ha [8] | plant injury at 500 g/ha [8] | pest or weed control at 125 g/ha [9] | pest or weed control at 500 g/ha [9] | pest or weed control at 125 g/ha [10] | pest or weed control at 500 g/ha [10] | pest or weed control at 125 g/ha [11] | pest or weed control at 500 g/ha [11] | pest or weed control at 250 g/ha [12] | pest or weed control at 250 g/ha [13] | pest or weed control at 250 g/ha [14] | pest or weed control at 250 g/ha [15]
20%: pest or weed control at 500 g/ha [6]

Cc1cc([C@H]2CN(C)C(=O)[C@@H]2C(=O)Nc2cccc(F)c2F)on1 [Compound 1196]
70%: pest or weed control at 125 g/ha [6]
90%: pest or weed control at 500 g/ha [3] | pest or weed control at 500 g/ha [6]
50%: pest or weed control at 125 g/ha [3]
30%: pest or weed control at 250 g/ha [13]
0%: pest or weed control at 125 g/ha [1] | pest or weed control at 500 g/ha [1] | pest or weed control at 125 g/ha [2] | pest or weed control at 500 g/ha [2] | pest or weed control at 125 g/ha [4] | pest or weed control at 500 g/ha [4] | pest or weed control at 125 g/ha [5] | pest or weed control at 500 g/ha [5] | pest or weed control at 125 g/ha [7] | pest or weed control at 500 g/ha [7] | plant injury at 125 g/ha [8] | plant injury at 500 g/ha [8] | pest or weed control at 125 g/ha [9] | pest or weed control at 500 g/ha [9] | pest or weed control at 125 g/ha [10] | pest or weed control at 500 g/ha [10] | pest or weed control at 125 g/ha [11] | pest or weed control at 500 g/ha [11] | pest or weed control at 250 g/ha [12] | pest or weed control at 250 g/ha [14] | pest or weed control at 250 g/ha [15]

N#Cc1cc([C@H]2CNC(=O)[C@@H]2C(=O)Nc2ccccc2F)ccc1F [Compound 1199]
95%: pest or weed control at 250 g/ha [13]
90%: pest or weed control at 500 g/ha [2] | pest or weed control at 125 g/ha [3] | pest or weed control at 125 g/ha [6]
60%: pest or weed control at 500 g/ha [5]
0%: pest or weed control at 125 g/ha [1] | pest or weed control at 500 g/ha [1] | pest or weed control at 125 g/ha [4] | pest or weed control at 500 g/ha [4] | pest or weed control at 125 g/ha [5] | pest or weed control at 125 g/ha [7] | plant injury at 125 g/ha [8] | plant injury at 500 g/ha [8] | pest or weed control at 125 g/ha [9] | pest or weed control at 500 g/ha [9] | pest or weed control at 125 g/ha [11] | pest or weed control at 500 g/ha [11] | pest or weed control at 250 g/ha [12] | pest or weed control at 250 g/ha [15]
100%: pest or weed control at 500 g/ha [3] | pest or weed control at 500 g/ha [6]
30%: pest or weed control at 125 g/ha [2]
20%: pest or weed control at 500 g/ha [7] | pest or weed control at 125 g/ha [10]
40%: pest or weed control at 500 g/ha [10] | pest or weed control at 250 g/ha [14]

COc1cc(C(F)(F)F)ccc1[C@H]1CNC(=O)[C@@H]1C(=O)Nc1cccc(F)c1F [Compound 1203]
40%: pest or weed control at 125 g/ha [10]
100%: pest or weed control at 250 g/ha [13]
80%: pest or weed control at 500 g/ha [2] | pest or weed control at 125 g/ha [3] | pest or weed control at 125 g/ha [6]
30%: pest or weed control at 125 g/ha [2] | pest or weed control at 500 g/ha [9] | pest or weed control at 250 g/ha [14]
90%: pest or weed control at 500 g/ha [3] | pest or weed control at 500 g/ha [6]
60%: pest or weed control at 500 g/ha [10] | pest or weed control at 500 g/ha [11]
0%: pest or weed control at 125 g/ha [1] | pest or weed control at 125 g/ha [5] | pest or weed control at 125 g/ha [7] | pest or weed control at 500 g/ha [7] | plant injury at 125 g/ha [8] | pest or weed control at 250 g/ha [12] | pest or weed control at 250 g/ha [15]
50%: pest or weed control at 500 g/ha [4] | plant injury at 500 g/ha [8]
20%: pest or weed control at 500 g/ha [1] | pest or weed control at 125 g/ha [4] | pest or weed control at 500 g/ha [5] | pest or weed control at 125 g/ha [9] | pest or weed control at 125 g/ha [11]

N#Cc1ccc([C@H]2CNC(=O)[C@@H]2C(=O)Nc2cccc(F)c2F)cc1 [Compound 1206]
0%: pest or weed control at 125 g/ha [1] | pest or weed control at 500 g/ha [1] | pest or weed control at 125 g/ha [2] | pest or weed control at 125 g/ha [7] | pest or weed control at 500 g/ha [7] | plant injury at 125 g/ha [8] | plant injury at 500 g/ha [8] | pest or weed control at 125 g/ha [9] | pest or weed control at 500 g/ha [9] | pest or weed control at 125 g/ha [11] | pest or weed control at 500 g/ha [11] | pest or weed control at 250 g/ha [14] | pest or weed control at 250 g/ha [15]
70%: pest or weed control at 125 g/ha [3]
80%: pest or weed control at 125 g/ha [6]
100%: pest or weed control at 500 g/ha [3] | pest or weed control at 500 g/ha [4]
90%: pest or weed control at 500 g/ha [5] | pest or weed control at 500 g/ha [6]
60%: pest or weed control at 500 g/ha [2] | pest or weed control at 125 g/ha [4]
15%: pest or weed control at 250 g/ha [12]
50%: pest or weed control at 125 g/ha [5] | pest or weed control at 125 g/ha [10] | pest or weed control at 500 g/ha [10]
95%: pest or weed control at 250 g/ha [13]
